# According to US8563730B2, “Pyrazole and fused pyrazole glucokinase activators” (Takeda San Diego, Inc., priority 2008, dated 2013):
# Molecular target: T1, GK (glucokinase, residues 12-465) (Homo sapiens, UniProt P35557)
# T1 construct: I.D. No. 1 corresponds to residues 12-465 of glucokinase; made in house; host or cells: DH10b-T1r E. coli
# T1 sequence (P35557 with tags, fused parts or gaps isoform P35557-2): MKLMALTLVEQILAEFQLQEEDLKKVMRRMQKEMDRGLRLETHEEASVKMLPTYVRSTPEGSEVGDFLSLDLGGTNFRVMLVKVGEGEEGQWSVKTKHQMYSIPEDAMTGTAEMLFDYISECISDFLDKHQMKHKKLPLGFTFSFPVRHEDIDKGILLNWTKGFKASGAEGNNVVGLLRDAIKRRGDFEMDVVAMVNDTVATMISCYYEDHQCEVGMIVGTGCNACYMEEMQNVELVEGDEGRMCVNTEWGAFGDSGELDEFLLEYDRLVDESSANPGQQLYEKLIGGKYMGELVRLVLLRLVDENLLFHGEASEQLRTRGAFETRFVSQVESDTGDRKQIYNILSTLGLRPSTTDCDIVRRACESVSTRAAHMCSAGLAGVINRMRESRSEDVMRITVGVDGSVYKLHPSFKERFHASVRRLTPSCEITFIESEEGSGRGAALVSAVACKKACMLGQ
# Experiment: enzymatic glucokinase activity assay (ATP consumption, KinaseGlo luminescence)
# Type: biochemical
# Conditions: 5 μM ATP, 5 mM Glucose, reported as bins; for EC50: Kact = concentration that displays 50% of the maximal increase in GK activity, 60 min, room temperature, read-out: pKact; for Emax: calculated maximal gain in GK enzyme activity at a saturating concentration of the compound, read-out: % ACTmax
# Method in brief: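 E. coli-expressed recombinant GK purified by two anion-exchange steps. Reaction in 25 mM Hepes pH 7.2, 10 mM MgCl2, 1 mM DTT, 5 μM ATP, 5 mM glucose, 2% DMSO, 60 min at room temperature. ATP consumption quantified by KinaseGlo luminescence; pKact and % ACTmax derived by non-linear curve fitting.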
EC50 [nM],Emax [%],Structure (SMILES)
≥ 15800,90 to 100,"COc1cc(S(=O)(=O)C2CC2)c2cn(C(CC3CCOCC3)C(=O)Nc3ncc(F)s3)nc2c1 (stereo not shown) [Compound 73, 2-(4-(cyclopropylsulfonyl)-6-methoxy-2H-indazol-2-yl)-N-(5-fluorothiazol-2-yl)-3-(tetrahydro-2H-pyran-4-yl)propanamide]"
1580 to 3160,90 to 100,"O=C1CC[C@H](C[C@@H](C(=O)Nc2cnccn2)n2ncc3c(S(=O)(=O)C4CC4)cccc32)C1 [Compound 74, (S)-2-(4-(cyclopropylsulfonyl)-1H-indazol-1-yl)-3-((R)-3-oxocyclopentyl)-N-(pyrazin-2-yl)propanamide]"
398 to 1260,90 to 100,"O=C1CC[C@H](C[C@H](C(=O)Nc2cnccn2)n2ncc3c(S(=O)(=O)C4CC4)cccc32)C1 [Compound 75, (R)-2-(4-(cyclopropylsulfonyl)-1H-indazol-1-yl)-3-((R)-3-oxocyclopentyl)-N-(pyrazin-2-yl)propanamide]"
≤ 316,106 to 110,"O=C(Nc1ncc(F)s1)[C@H](CC1CCOCC1)n1ncc2c(S(=O)(=O)C3CC3)cc(O)cc21 [Compound 76, (S)-2-(4-(cyclopropylsulfonyl)-6-hydroxy-1H-indazol-1-yl)-N-(5-fluorothiazol-2-yl)-3-(tetrahydro-2H-pyran-4-yl)propanamide]"
≥ 15800,101 to 105,"O=C(Nc1ncc(F)s1)[C@@H](CC1CCOCC1)n1ncc2c(S(=O)(=O)C3CC3)cc(O)cc21 [Compound 77, (R)-2-(4-(cyclopropylsulfonyl)-6-hydroxy-1H-indazol-1-yl)-N-(5-fluorothiazol-2-yl)-3-(tetrahydro-2H-pyran-4-yl)propanamide]"
1580 to 3160,90 to 100,"O=C1CC[C@H](C[C@H](C(=O)Nc2ncc(F)s2)n2ncc3c(S(=O)(=O)C4CC4)cc(Cl)cc32)C1 [Compound 78, (R)-2-(6-chloro-4-(cyclopropylsulfonyl)-1H-indazol-1-yl)-N-(5-fluorothiazol-2-yl)-3-((R)-3-oxocyclopentyl)propanamide]"
≤ 316,90 to 100,"O=C1CC[C@H](C[C@@H](C(=O)Nc2ncc(F)s2)n2ncc3c(S(=O)(=O)C4CC4)cc(Cl)cc32)C1 [Compound 79, (S)-2-(6-chloro-4-(cyclopropylsulfonyl)-1H-indazol-1-yl)-N-(5-fluorothiazol-2-yl)-3-((R)-3-oxocyclopentyl)propanamide]"
≤ 316,101 to 105,"COc1ccc2c(cnn2C(CC2CCOCC2)C(=O)Nc2ncc(F)s2)c1S(=O)(=O)C1CC1 (stereo not shown) [Compound 80, 2-(4-(cyclopropylsulfonyl)-5-methoxy-1H-indazol-1-yl)-N-(5-fluorothiazol-2-yl)-3-(tetrahydro-2H-pyran-4-yl)propanamide]"
3980 to 12600,101 to 105,"COc1ccc2c(cnn2[C@H](CC2CCOCC2)C(=O)Nc2ncc(F)s2)c1S(=O)(=O)C1CC1 [Compound 81, (R)-2-(4-(cyclopropylsulfonyl)-5-methoxy-1H-indazol-1-yl)-N-(5-fluorothiazol-2-yl)-3-(tetrahydro-2H-pyran-4-yl)propanamide]"
≤ 316,106 to 110,"COc1ccc2c(cnn2[C@@H](CC2CCOCC2)C(=O)Nc2ncc(F)s2)c1S(=O)(=O)C1CC1 [Compound 82, (S)-2-(4-(cyclopropylsulfonyl)-5-methoxy-1H-indazol-1-yl)-N-(5-fluorothiazol-2-yl)-3-(tetrahydro-2H-pyran-4-yl)propanamide]"
3980 to 12600,≤ 90,"COc1cc(S(=O)(=O)C2CC2)c2cnn(C(CC3CCOCC3)C(=O)Nc3ccn(C)n3)c2c1 (stereo not shown) [Compound 83, 2-(4-(cyclopropylsulfonyl)-6-methoxy-1H-indazol-1-yl)-N-(1-methyl-1H-pyrazol-3-yl)-3-(tetrahydro-2H-pyran-4-yl)propanamide]"
